From US8889696B2, “Substituted pyrido[2,3-d]pyrimidin-7(8H)-ones and therapeutic uses thereof” (Temple University—Of The Commonwealth System Of Higher …, priority 2009, dated 2014)
pIC50: −log10 of the molar value.

Assays:
DU145 (prostate cancer) = assay: Effect on tumor cell lines (Latham assay), DU145; assay type: cell-based; conditions: Homo sapiens, DU-145; DU145 cells, examined 96 hours after treatment; read-out: Potencies (IC50) DU 145
Protocol: (§1) The plated cells were treated 24 hours later with a compound of the invention dissolved in DMSO at multiple concentrations ranging from 0.01 μM to 100 μM. […] When necessary, the total number of viable cells was determined by trypsinizing the wells and counting the number of viable cells, as determined by trypan blue exclusion, using a hemacytometer.

[1] = system: K562 (chronic myelogenous leukemia); assay: Effect on tumor cell lines (Latham assay), K562; assay type: cell-based; conditions: Homo sapiens; K562 cells, examined 96 hours after treatment; read-out: Potencies (IC50) K 562
Protocol: as §1

SMILES	pIC50 (DU145 (prostate cancer))	pIC50 [1]	melting point
COc1ccc(Nc2ncc3cc(S(=O)(=O)c4ccc(Cl)cc4)c(=O)n(C)c3n2)cc1 [Example 4, 6-(4-chlorophenylsulfonyl)-2-(4-methoxyphenylamino)-8-methylpyrido[2,3-d]pyrimidin-7(8H)-one]	4.30 to 4.60	4.60 to 5.00	286 to 290 °C
COc1ccc(Nc2ncc3cc(S(=O)(=O)c4ccc(C)cc4)c(=O)n(C)c3n2)cc1 [Example 20, 2-(4-methoxyphenylamino)-8-methyl-6-tosylpyrido[2,3-d]pyrimidin-7(8H)-one]	< 4.00	4.00 to 4.30	336 to 340 °C
CSc1ncc2cc(S(=O)(=O)c3ccc(Cl)cc3)c(=O)n(C3CCCC3)c2n1 [Example 60, 6-(4-chlorophenylsulfonyl)-8-cyclopentyl-2-(methylsulfanyl)pyrido[2,3-d]pyrimidin-7(8H)-one]	4.00 to 4.30	4.00 to 4.30	222 to 223 °C
Cc1ccc(S(=O)(=O)c2cc3cnc(Nc4ccc5ncccc5c4)nc3n(C)c2=O)cc1 [Example 15, 8-methyl-2-(quinolin-6-ylamino)-6-tosylpyrido[2,3-]pyrimidin-7(8H)-one]	4.60 to 5.00	4.60 to 5.00	325 to 330 °C
CCCn1c(=O)c(S(=O)(=O)c2ccccc2)cc2cnc(Nc3cccc4[nH]ccc34)nc21 [Example 45, 2-(1H-indol-4-ylamino)-6-(phenylsulfonyl)-8-propylpyrido[2,3-d]pyrimidin-7(8H)-one]	4.60 to 5.00	5.00 to 6.00	260 to 261 °C
CN1CCN(CCNc2ncc3cc(S(=O)(=O)c4ccc(Cl)cc4)c(=O)n(C)c3n2)CC1 [Example 9, 2-(2-(4-methylpiperazin-1-yl)ethylamino)-6-(4-chlorophenylsulfonyl)-8-methylpyrido[2,3-d]pyrimidin-7(8H)-one]	4.30 to 4.60	4.60 to 5.00	176 to 180 °C
O=c1c(S(=O)(=O)c2ccc(Cl)cc2)cc2cnc(Nc3ccc4[nH]ccc4c3)nc2n1C1CCCCC1 [Example 51, 2-(1H-indol-5-ylamino)-6-(4-chlorophenylsulfonyl)-8-cyclohexylpyrido[2,3-d]pyrimidin-7(8H)-one]	4.30 to 4.60	4.60 to 5.00	305 to 307 °C
CSc1ncc2cc(S(=O)(=O)c3ccccc3)c(=O)[nH]c2n1 [Example 68, 2-(methylsulfanyl)-6-(phenylsulfonyl)pyrido[2,3-d]pyrimidin-7(8H)-one]	< 4.00	< 4.00	280 °C (dec.)
Cn1c(=O)c(S(=O)(=O)c2ccc(Cl)cc2)cc2cnc(NCCCN3CCOCC3)nc21 [Example 7, 2-(3-morpholinopropylamino)-6-(4-chlorophenylsulfonyl)-8-methylpyrido[2,3-d]pyrimidin-7(8H)-one]	4.30 to 4.60	4.30 to 4.60	160 to 164 °C
O=c1c(S(=O)(=O)c2ccccc2)cc2cnc(Nc3ccc(N4CCOCC4)cc3)nc2n1C1CCCC1 [Example 63, 2-(4-morpholinophenylamino)-8-cyclopentyl-6-(phenylsulfonyl)pyrido[2,3-d]pyrimidin-7(8H)-one]	4.60 to 5.00	4.60 to 5.00	221 to 222 °C
Cc1ccc(S(=O)(=O)c2cc3cnc(Nc4cccc5cccnc45)nc3n(C)c2=O)cc1 [Example 14, 8-methyl-2-(quinolin-8-ylamino)-6-tosylpyrido[2,3-d]pyrimidin-7(8H)-one]	4.60 to 5.00	4.60 to 5.00	> 350 °C
Cn1c(=O)c(S(=O)(=O)c2ccc(F)c(Cl)c2)cc2cnc(Nc3cccc4[nH]ccc34)nc21 [Example 34, 2-(1H-indol-4-ylamino)-6-(3-chloro-4-fluorophenylsulfonyl)-8-methylpyrido[2,3-d]pyrimidin-7(8H)-one]	4.00 to 4.30	4.00 to 4.30	315 to 320 °C
COc1ccc(Nc2ncc3cc(S(=O)(=O)c4ccccc4)c(=O)n(C4CCCC4)c3n2)cc1 [Example 56, 2-(4-methoxyphenylamino)-8-cyclopentyl-6-(phenylsulfonyl)pyrido[2,3-d]pyrimidin-7(8H)-one]	4.30 to 4.60	5.00 to 6.00	201 °C
Cn1c(=O)c(S(=O)(=O)c2ccccc2)cc2cnc(Nc3ccc4ncccc4c3)nc21 [Example 23, 8-methyl-6-(phenylsulfonyl)-2-(quinolin-6-ylamino)pyrido[2,3-d]pyrimidin-7(8H)-one]	4.00 to 4.30	< 4.00	348 to 350 °C
CCCn1c(=O)c(S(=O)(=O)c2ccccc2)cc2cnc(SC)nc21 [Example 48, 2-(methylsulfanyl)-6-(phenylsulfonyl)-8-propylpyrido[2,3-d]pyrimidin-7(8H)-one]	< 4.00	4.00 to 4.30	231 to 232 °C

Results, then the molecule that gave them:

pIC50 (DU145 (prostate cancer))	pIC50 [1]	melting point	SMILES
5.00 to 6.00	5.00 to 6.00	252 to 255 °C	Cc1ccc(S(=O)(=O)c2cc3cnc(Nc4cnc5[nH]ccc5c4)nc3n(C)c2=O)cc1 [Example 19, 2-(1H-pyrrolo[2,3-b]pyridin-5-ylamino)-8-methyl-6-tosylpyrido[2,3-d]pyrimidin-7(8H)-one]
4.60 to 5.00	4.60 to 5.00	262 to 265 °C	Cn1c(=O)c(S(=O)(=O)c2ccc(C(=O)O)cc2)cc2cnc(Nc3ccc4[nH]ccc4c3)nc21 [Example 37, 4-(2-(1H-indol-5-ylamino)-7,8-dihydro-8-methyl-7-oxopyrido[2,3-d]pyrimidin-6-ylsulfonyl)benzoic acid]
5.00 to 6.00	> 6.00	293 to 295 °C	CCCn1c(=O)c(S(=O)(=O)c2ccccc2)cc2cnc(Nc3ccc4[nH]ccc4c3)nc21 [Example 47, 2-(1H-indol-5-ylamino)-6-(phenylsulfonyl)-8-propylpyrido[2,3-d]pyrimidin-7(8H)-one]
5.00 to 6.00	5.00 to 6.00	160 to 165 °C	Cn1c(=O)c(S(=O)(=O)c2ccc(F)cc2)cc2cnc(Nc3ccc4[nH]ncc4c3)nc21 [Example 13, 2-(1H-indazol-5-ylamino)-6-(4-fluorophenylsulfonyl)-8-methylpyrido[2,3-d]pyrimidin-7(8H)-one]
5.00 to 6.00	> 6.00	340 to 344 °C	Cn1c(=O)c(S(=O)(=O)c2ccccc2)cc2cnc(Nc3ccc4[nH]ccc4c3)nc21 [Example 21, 2-(1H-indol-5-ylamino)-8-methyl-6-(phenylsulfonyl)pyrido[2,3-d]pyrimidin-7(8H)-one]
> 6.00	> 6.00	320 to 325 °C	Cn1c(=O)c(S(=O)(=O)c2ccc(F)c(Cl)c2)cc2cnc(Nc3cnc4[nH]ccc4c3)nc21 [Example 35, 2-(1H-pyrrolo[2,3-b]pyridin-5-ylamino)-6-(3-chloro-4-fluorophenylsulfonyl)-8-methylpyrido[2,3-d]pyrimidin-7(8H)-one]
> 6.00	> 6.00	260 to 262 °C	COc1ccc(S(=O)(=O)c2cc3cnc(Nc4ccc5[nH]ccc5c4)nc3n(C)c2=O)cc1 [Example 29, 2-(1H-indol-5-ylamino)-6-(4-methoxyphenylsulfonyl)-8-methylpyrido[2,3-d]pyrimidin-7(8H)-one]
5.00 to 6.00	5.00 to 6.00	295 to 300 °C	Cc1ccc(S(=O)(=O)c2cc3cnc(Nc4cccc5[nH]ccc45)nc3n(C)c2=O)cc1 [Example 16, 2-(1H-indol-4-ylamino)-8-methyl-6-tosylpyrido[2,3-d]pyrimidin-7(8H)-one]
> 6.00	> 6.00	280 to 284 °C	Cn1c(=O)c(S(=O)(=O)c2ccccc2)cc2cnc(Nc3cnc4[nH]ccc4c3)nc21 [Example 22, 2-(1H-pyrrolo[2,3-b]pyridin-5-ylamino)-8-methyl-6-(phenylsulfonyl)pyrido[2,3-d]pyrimidin-7(8H)-one]
5.00 to 6.00	5.00 to 6.00	296 to 298 °C	Cn1c(=O)c(S(=O)(=O)c2ccc(Cl)cc2)cc2cnc(Nc3cnc4[nH]ccc4c3)nc21 [Example 32, 2-(1H-pyrrolo[2,3-b]pyridin-5-ylamino)-6-(4-chlorophenylsulfonyl)-8-methylpyrido[2,3-d]pyrimidin-7(8H)-one]
> 6.00	> 6.00	310 to 314 °C	Cc1ccc(S(=O)(=O)c2cc3cnc(Nc4ccc5[nH]ccc5c4)nc3n(C)c2=O)cc1 [Example 17, 2-(1H-indol-5-ylamino)-8-methyl-6-tosylpyrido[2,3-d]pyrimidin-7(8H)-one]
5.00 to 6.00	5.00 to 6.00	316 to 320 °C	Cn1c(=O)c(S(=O)(=O)c2ccc(Br)cc2)cc2cnc(Nc3ccc4[nH]ccc4c3)nc21 [Example 18, 2-(1H-indol-5-ylamino)-6-(4-bromophenylsulfonyl)-8-methylpyrido[2,3-d]pyrimidin-7(8H)-one]
5.00 to 6.00	5.00 to 6.00	272 to 273 °C	CCCn1c(=O)c(S(=O)(=O)c2ccccc2)cc2cnc(Nc3ccc4cc[nH]c4c3)nc21 [Example 44, 2-(1H-indol-6-ylamino)-6-(phenylsulfonyl)-8-propylpyrido[2,3-d]pyrimidin-7(8H)-one]
> 6.00	> 6.00	278 to 282 °C	Cn1c(=O)c(S(=O)(=O)c2ccc(F)cc2)cc2cnc(Nc3ccc4[nH]ccc4c3)nc21 [Example 11]
5.00 to 6.00	5.00 to 6.00	119 to 120 °C	COc1cc(Nc2ncc3cc(S(=O)(=O)c4ccccc4)c(=O)n(C4CCCC4)c3n2)cc(OC)c1OC [Example 62, 2-(3,4,5-trimethoxyphenylamino)-8-cyclopentyl-6-(phenylsulfonyl)pyrido[2,3-d]pyrimidin-7(8H)-one]
